Data from patent US10336762B2 (priority 2017, dated 2019).
Where two headings read alike, the source gives them in different places.

Legend:
[1] = target: IRAK4 enzyme (Homo sapiens (Human), UniProt Q9NWZ3); assay: biochemical; format: biochemical; settings: IRAK4 enzyme, 500 μM ATP
[2] = tested on: TNFα; assay: cells; format: cell-based, human; settings: LPS-stimulated human monocytes, read-out: EC50 TNF
[3] = Homo sapiens, Monocyte, TNFα content
[4] = Homo sapiens, Monocyte, TNFα by TR-FRET

IRAK4 enzyme, sequence (Q9NWZ3 whole entry): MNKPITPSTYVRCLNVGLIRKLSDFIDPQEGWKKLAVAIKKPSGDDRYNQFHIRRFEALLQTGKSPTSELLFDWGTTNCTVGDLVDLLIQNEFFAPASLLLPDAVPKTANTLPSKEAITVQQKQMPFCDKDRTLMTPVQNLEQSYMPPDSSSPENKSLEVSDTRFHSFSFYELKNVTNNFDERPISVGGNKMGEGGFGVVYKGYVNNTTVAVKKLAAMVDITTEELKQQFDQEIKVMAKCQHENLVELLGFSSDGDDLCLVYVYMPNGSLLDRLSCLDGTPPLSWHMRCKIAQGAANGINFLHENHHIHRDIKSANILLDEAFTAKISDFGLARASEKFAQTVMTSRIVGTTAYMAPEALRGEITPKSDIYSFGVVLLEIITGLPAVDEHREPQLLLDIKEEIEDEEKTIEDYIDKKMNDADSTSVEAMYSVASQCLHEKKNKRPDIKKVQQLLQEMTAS

Compound	IC50 ([1]; TR-FRET) [nM]	EC50 [2, 3] [nM]	IC50 ([1]; TR-FRET (HTRF)) [nM]	EC50 ([2]; TNFα content) [nM]	EC50 [2, 4] [nM]
CC1(C)OCCC1Nc1cc(-c2ccc3cc(C#N)cnn23)ncc1C(=O)NC[C@@H](F)C(C)(C)O (stereo partly drawn) [Example 130, 6-(3-cyanopyrrolo[1,2-b]pyridazin-7-yl)-4-((2,2-dimethyltetrahydrofuran-3-yl)amino)-N-((R)-2-fluoro-3-hydroxy-3-methylbutyl)nicotinamide]	3	221	–	–	–
CC(C)(O)[C@H](F)CNC(=O)c1cnc(-c2ccc3cc(C#N)cnn23)cc1NC12CCC(C(=O)N3CCOCC3)(CC1)CC2 [Example 401, (R)-6-(3-cyanopyrrolo[1,2-b]pyridazin-7-yl)-N-(2-fluoro-3-hydroxy-3-methylbutyl)-4-((4-(morpholine-4-carbonyl)bicyclo[2.2.2]octan-1-yl)amino)nicotinamide]	–	65	2	–	–
CC(C)Nc1cc(-c2ccc3cc(C#N)cnn23)ncc1C(=O)NCC(F)(F)CNC(=O)OC(C)(C)C [Example 554, tert-butyl (3-(6-(3-cyano-pyrrolo[1,2-b]pyridazin-7-yl)-4-(isopropylamino)nicotinamido)-2,2-difluoropropyl)carbamate]	–	439	35	–	–
CC(C)(O)[C@H](F)CNC(=O)c1cnc(-c2ccc3cc(C#N)cnn23)cc1N[C@H]1C[C@H](CNC(=O)C2CCO2)C1 (some centres unmarked) [Example 614]	–	156	2	–	–
COC(=O)c1ccc(Nc2cc(-c3ccc4cc(C#N)cnn34)ncc2C(=O)NC[C@@H](F)C(C)(C)O)cc1OC [Example 564, (R)-methyl 4-((2-(3-cyano-pyrrolo[1,2-b]pyridazin-7-yl)-5-((2-fluoro-3-hydroxy-3-methylbutyl)carbamoyl)pyridin-4-yl)amino)-2-methoxybenzoate]	–	315	23	–	–
CC(C)(O)[C@H](F)CNC(=O)c1cnc(-c2ccc3cc(C#N)cnn23)cc1Nc1ccc(C(F)F)nc1 [Example 227, (R)-6-(3-cyanopyrrolo[1,2-b]pyridazin-7-yl)-4-((6-(difluoromethyl)pyridin-3-yl)amino)-N-(2-fluoro-3-hydroxy-3-methylbutyl)nicotinamide]	< 1	31	–	–	–
CCC(=O)NC[C@H]1C[C@H](Nc2cc(-c3ccc4cc(C#N)cnn34)ncc2C(=O)NC[C@@H](F)C(C)(C)O)C1 [Example 538, 6-(3-cyanopyrrolo[1,2-b]pyridazin-7-yl)-N-((R)-2-fluoro-3-hydroxy-3-methylbutyl)-4-(((1r,3R)-3-(propionamidomethyl)cyclobutyl)amino)nicotin-amide]	–	50	< 1	–	–
COC(=O)NC1CC2(C1)CC(Nc1cc(-c3ccc4cc(C#N)cnn34)ncc1C(=O)NC[C@@H](F)C(C)(C)O)C2 (single isomer, unassigned) [Example 756]	–	–	1	59	–
COC(=O)N1CC[C@@H](Nc2cc(-c3ccc4cc(C#N)cnn34)ncc2C(=O)NC[C@@H](F)C(C)(C)O)C1 [Example 752, (R)-methyl 3-((2-(3-cyano-pyrrolo[1,2-b]pyridazin-7-yl)-5-(((R)-2-fluoro-3-hydroxy-3-methylbutyl)carbamoyl)pyridin-4-yl)amino)pyrrolidine-1-carboxylate]	–	80	< 1	–	–
CC(C)C(=O)N[C@H]1CC[C@H](Nc2cc(-c3ccc4cc(C#N)cnn34)ncc2C(=O)NC[C@@H](F)C(C)(C)O)CC1 [Example 298, 6-(3-cyanopyrrolo[1,2-b]pyridazin-7-yl)-N-((R)-2-fluoro-3-hydroxy-3-methylbutyl)-4-(((1r,4R)-4-isobutyramidocyclohexyl)amino)nicotinamide]	2	214	–	–	–
N#CCNC(=O)c1cnc(-c2ccc3cc(C#N)cnn23)cc1NC12CCC(C(=O)NC3COC3)(CC1)CC2 [Example 454, N-(cyanomethyl)-6-(3-cyanopyrrolo[1,2-b]pyridazin-7-yl)-4-((4-(oxetan-3-ylcarbamoyl)bicyclo[2.2.2]octan-1-yl)amino)nicotinamide]	–	207	< 1	–	–
COC(=O)NCC(C)(C)CNc1cc(-c2ccc3cc(C#N)cnn23)ncc1C(=O)NC[C@@H](F)C(C)(C)O [Example 718, (R)-methyl (3-((2-(3-cyano-pyrrolo[1,2-b]pyridazin-7-yl)-5-((2-fluoro-3-hydroxy-3-methylbutyl)carbamoyl)pyridin-4-yl)amino)-2,2-dimethylpropyl)carbamate]	–	280	2	–	–
CC(C)(O)[C@H](F)CNC(=O)c1cnc(-c2ccc3cc(C#N)cnn23)cc1Nc1cnn(C2CC2)c1 [Example 67, (R)-6-(3-cyanopyrrolo[1,2-b]pyridazin-7-yl)-4-((1-cyclopropyl-1H-pyrazol-4-yl)amino)-N-(2-fluoro-3-hydroxy-3-methylbutyl)nicotinamide]	< 1	43	–	–	–
N#Cc1cnn2c(-c3cc(NC45CCC(O)(CC4)CC5)c(C(=O)NCC(=O)N4CCC5(COC5)C4)cn3)ccc2c1 [Example 799, 6-(3-cyanopyrrolo[1,2-b]pyridazin-7-yl)-4-((4-hydroxybicyclo[2.2.2]octan-1-yl)amino)-N-(2-oxo-2-(2-oxa-6-azaspiro[3.4]octan-6-yl)ethyl)nicotinamide]	< 1	–	–	–	62
N#CCNC(=O)c1cnc(-c2ccc3cc(C#N)cnn23)cc1NC1CC1 [Example 461, N-(cyanomethyl)-6-(3-cyanopyrrolo[1,2-b]pyridazin-7-yl)-4-(cyclopropylamino) nicotinamide]	–	57	< 1	–	–
CNC(=O)OC[C@H]1C[C@H](Nc2cc(-c3ccc4cc(C#N)cnn34)ncc2C(=O)NC[C@@H](F)C(C)(C)O)C1 [Example 725]	–	23	< 1	–	–
CC(C)(O)[C@H](F)CNC(=O)c1cnc(-c2ccc3cc(C#N)cnn23)cc1NC1Cc2ccncc2C1 (single isomer, unassigned) [Example 676]	–	81	1	–	–
Cn1cc(CNC(=O)c2cnc(-c3ccc4cc(C#N)cnn34)cc2NC23CCC(O)(CC2)CC3)cn1 [Example 926, 6-(3-cyanopyrrolo[1,2-b]pyridazin-7-yl)-4-((4-hydroxybicyclo[2.2.2]octan-1-yl)amino)-N-((1-methyl-1H-pyrazol-4-yl)methyl)nicotinamide]	2	–	–	–	192
CC(C)(O)[C@H](F)CNC(=O)c1cnc(-c2ccc3cc(C#N)cnn23)cc1Nc1cnn(C2CNC2)c1 [Example 232, (R)-4-((1-(azetidin-3-yl)-1H-pyrazol-4-yl)amino)-6-(3-cyanopyrrolo[1,2-b]pyridazin-7-yl)-N-(2-fluoro-3-hydroxy-3-methylbutyl)nicotinamide]	1	425	–	–	–
COC[C@@H]1CCCN1c1ccc(Nc2cc(-c3ccc4cc(C#N)cnn34)ncc2C(=O)NC[C@@H](F)C(C)(C)O)cn1 [Example 884, 6-(3-cyanopyrrolo[1,2-b]pyridazin-7-yl)-N-((R)-2-fluoro-3-hydroxy-3-methylbutyl)-4-((6-((S)-2-(methoxymethyl)pyrrolidin-1-yl)pyridin-3-yl)amino)nicotinamide]	2	–	–	–	29
CC(C)(O)[C@H](F)CNC(=O)c1cnc(-c2ccc3cc(C#N)cnn23)cc1Nc1cnn(C2COC2)c1 [Example 43, (R)-6-(3-cyanopyrrolo[1,2-b]pyridazin-7-yl)-N-(2-fluoro-3-hydroxy-3-methyl-butyl)-4-((1-(oxetan-3-yl)-1H-pyrazol-4-yl)amino) nicotinamide]	< 1	30	–	–	–
COc1cc(Nc2cc(-c3ccc4cc(C#N)cnn34)ncc2C(=O)NC[C@@H](F)C(C)(C)O)ccn1 [Example 598, (R)-6-(3-cyano-pyrrolo[1,2-b]pyridazin-7-yl)-N-(2-fluoro-3-hydroxy-3-methyl-butyl)-4-((2-methoxy-pyridin-4-yl)amino) nicotinamide]	–	106	< 1	–	–
CC(C)(O)[C@H](F)CNC(=O)c1cnc(-c2ccc3cc(C#N)cnn23)cc1NC1CC2CCC(C1)O2 (stereo partly drawn) [Example 50, 4-(8-oxabicyclo[3.2.1]octan-3-ylamino)-6-(3-cyanopyrrolo[1,2-b]pyridazin-7-yl)-N-((R)-2-fluoro-3-hydroxy-3-methylbutyl) nicotinamide]	3	351	–	–	–
CC(C)(O)[C@H](F)CNC(=O)c1cnc(-c2ccc3cc(C#N)cnn23)cc1N[C@@H]1[C@@H]2COC[C@@H]21 [Example 148, 4-(((1R,5S,6s)-3-oxabicyclo[3.1.0]hexan-6-yl)amino)-6-(3-cyano-pyrrolo[1,2-b]pyridazin-7-yl)-N-((R)-2-fluoro-3-hydroxy-3-methylbutyl)nicotinamide]	2	206	–	–	–
CC(=O)N[C@H]1C[C@H](NC(=O)c2cnc(-c3ccc4cc(C#N)cnn34)cc2NC(C)C)C1 [Example 124, N-((1r,3r)-3-acetamido-cyclobutyl)-6-(3-cyano-pyrrolo[1,2-b]pyridazin-7-yl)-4-(isopropylamino) nicotinamide]	3	182	–	–	–
CC(C)Nc1cc(-c2ccc3cc(C#N)cnn23)ncc1C(=O)N[C@@H]1CCOC1 [Example 37, (R)-6-(3-cyanopyrrolo[1,2-b]pyridazin-7-yl)-4-(isopropylamino)-N-(tetrahydrofuran-3-yl) nicotinamide]	12	283	–	–	–
CC(C)(O)[C@H](F)CNC(=O)c1cnc(-c2ccc3cc(C#N)cnn23)cc1N[C@H]1CCC[C@@H](N)C1 [Example 533, 4-(((1S,3R)-3-aminocyclohexyl)amino)-6-(3-cyanopyrrolo[1,2-b]pyridazin-7-yl)-N-((R)-2-fluoro-3-hydroxy-3-methylbutyl)nicotinamide]	–	70	< 1	–	–
COC(=O)NC[C@H]1C[C@H](Nc2cc(-c3ccc4cc(C#N)cnn34)ncc2C(=O)NCCC(C)(C)N)C1 [Example 819, methyl (((1r,3r)-3-((5-((3-amino-3-methylbutyl)carbamoyl)-2-(3-cyano-pyrrolo[1,2-b]pyridazin-7-yl)pyridin-4-yl)amino)cyclo-butyl)methyl)carbamate]	< 1	–	–	–	27
